Earlier results as cited in US5017613A, “Valproic acid preparations” (Sanofi, S. A., priority 1983, dated 1991).

Conditions: after oral administration

bioavailability in the blood of valproic acid: ~100%
Structure (SMILES): CCCC(CCC)C(=O)O [valproic acid, Dipropylacetic or valproic acid]
